Measurements as given in PMC6451745, “Development and dosimetry of ^203Pb/^212Pb-labelled PSMA ligands: bringing “the lead” into PSMA-targeted alpha therapy?” (European Journal of Nuclear Medicine and Molecular Imaging, 2019).
Several values for one entry are separate records, joined by “and”; a condition that tells them apart may be missing. Identical values can stand only once. Like-named read-outs stand apart in the source and are kept apart here.

Tests used:
C4-2 tumour-bearing mice [1] = assay: Planar scintigraphic imaging in tumour-bearing mice; type: in vivo; conditions: ^203Pb-labelled, 1 h after injection, Fig. 3
Method: (§1) The in vivo experiments were carried out in accordance with the laws on animal welfare of the Federal Republic of Germany. For imaging and biodistribution studies, male BALB/c nu/nu mice (20–25 g; Charles River) bearing C4-2 tumour xenografts were used. The mice were inoculated subcutaneously in the right trunk with 5 × 10^6 C4-2 cells in 50% Matrigel in Opti-MEM (1×). For small-animal imaging the mice were anaesthetized with 2% sevoflurane, and then 0.1 nmol (1.0 MBq) of the respective ^203Pb ligand was injected into a tail vein. Serial planar scans were performed using a Gamma Imager-sct (Biospace Lab, Paris, France) with a parallel collimator (35 mm/1.8 mm/0.2 mm) after 10 min, 1 h, 4 h and 24 h. Based on the imaging results, compound CA012 was chosen for biodistribution studies. Experiments were performed in triplicate. For biodistribution, 0.025 nmol (1 MBq) of labelled compound per mouse was administered by injection into a tail vein. After 10 min, 1 h, 4 h and 24 h the mice were killed, the organs were dissected and weighed, and activity was measured using a gamma counter (Packard Cobra Auto-gamma). The organ uptakes were calculated as the percentage of the injected dose per gram of tissue (%ID/g).

PSMA = biological target: T1, PSMA (Homo sapiens, UniProt Q04609); assay: Competitive binding assay on C4-2 cells; conditions: reference ^68Ga-labelled PSMA-HBED-CC dimer (PSMA-10), mean ± SD
T1 construct: host or cells: C4-2 cells (LNCaP subline)
Method: (§2) In vitro and in vivo experiments were performed using the PSMA-positive C4-2 cell line, a subline of the LNCaP (lymph node carcinoma of the prostate) cell line (CRL-3314; American Type Culture Collection). C4-2 cells were cultivated in RPMI-1640 (PAN Biotech) supplemented with 10% fetal calf serum and stable glutamine (PAN Biotech). Cells were grown at 37 °C and incubated in humidified air equilibrated with 5% CO2.
A MultiScreenHTS-DV filter plate was incubated at room temperature with 100 μl phosphate-buffered saline (PBS) containing 1% bovine serum albumin (BSA) per well for 30 min. After removal of the PBS/BSA solution, 1 × 10^5 C4-2 cells in Opti-MEM were added to each well. All nonlabelled compounds were dissolved in 300 μl Opti-MEM at the following concentrations: 0, 0.5, 1, 2.5, 5, 10, 25, 50, 100, 500, 1,000 and 5,000 nM. Subsequently, 3 μl of the radiolabelled compound was added, and 50 μl of this mixture was taken to obtain a solution containing 0.75 nM of the radiolabelled ligand. After 45 min incubation at 37 °C, the cells were washed twice with PBS, the radioactivity accumulated in the cells was collected, and the remaining radioactivity was measured in a gamma counter. The inhibitory potency was determined using ^68Ga-labelled PSMA-HBED-CC dimer (i.e. PSMA-10) as the reference. The 50% inhibitory concentration was calculated using a nonlinear regression algorithm (GraphPad Prism 5.01 software). The experiments were performed in quadruplicate.

C4-2 cells = assay: Determination of specific internalization ratio; type: cell-based
Method: as §2
For determination of the specific internalization ratio, 24-well plates were incubated for 20 min with 0.1% poly-L-lysine in PBS at room temperature and washed once with PBS. In the next step, 1 ml RPMI containing 1 × 10^5 C4-2 cells was added to each well and incubated overnight. The conditions during the experiment for each compound were: incubation at 37 °C or 4 °C with or without receptor blocking via 2-(phosphonomethyl)pentanedioic acid (2-PMPA; Axxora) at a final concentration of 500 μM. The cells were then incubated with 250 μl of a 30 nM solution of ^203Pb-labelled compound. The plates were incubated either for 45 min in a water bath at 37 °C or on ice at 4 °C. The cells were then washed three times with 1 ml ice-cold PBS and incubated with 0.5 ml glycine (50 mM in HCl, pH 2.8) for 5 min. After an additional washing step with 1 ml ice-cold PBS, the cells were lysed with 0.5 ml 0.3 M NaOH and collected, and the radioactivity was measured with a gamma counter for 1 min. The specific cellular uptake was determined as the percentage of initially added radioactivity bound per 10^6 cells (%IA/10^6 cells) by subtraction of the respective uptake under blocking conditions. All experiments were performed in triplicate.

[2] = mice; cited from earlier work
C4-2 tumour-bearing mice [3] = assay: Biodistribution (organ distribution) in tumour-bearing mice; type: in vivo; conditions: 0.025 nmol i.v., C4-2 tumour-bearing mice, n = 3
Method: as §1

[4] = system: patients with castration-resistant metastasized prostate cancer; assay: ^203Pb-CA012 dosimetry from planar whole-body scans in patients (QDOSE/OLINDA); type: in vivo, human; conditions: diagnostic ^203Pb, two patients, male adult phantom in OLINDA
Method: OLINDA calculations were performed for all nuclides individually.

[5] = design: method as in PMID 28891033; conditions: projected treatment activity 1 GBq; cited from earlier work
[6] = design: method as in PMID 28408529; conditions: projected treatment activity 6–8 MBq; cited from earlier work
[7] = ^203Pb-labelled compound 30 nM, 45 min, 2-PMPA blocking subtracted, mean ± SD n = 3

T1 sequence (Q04609 whole entry): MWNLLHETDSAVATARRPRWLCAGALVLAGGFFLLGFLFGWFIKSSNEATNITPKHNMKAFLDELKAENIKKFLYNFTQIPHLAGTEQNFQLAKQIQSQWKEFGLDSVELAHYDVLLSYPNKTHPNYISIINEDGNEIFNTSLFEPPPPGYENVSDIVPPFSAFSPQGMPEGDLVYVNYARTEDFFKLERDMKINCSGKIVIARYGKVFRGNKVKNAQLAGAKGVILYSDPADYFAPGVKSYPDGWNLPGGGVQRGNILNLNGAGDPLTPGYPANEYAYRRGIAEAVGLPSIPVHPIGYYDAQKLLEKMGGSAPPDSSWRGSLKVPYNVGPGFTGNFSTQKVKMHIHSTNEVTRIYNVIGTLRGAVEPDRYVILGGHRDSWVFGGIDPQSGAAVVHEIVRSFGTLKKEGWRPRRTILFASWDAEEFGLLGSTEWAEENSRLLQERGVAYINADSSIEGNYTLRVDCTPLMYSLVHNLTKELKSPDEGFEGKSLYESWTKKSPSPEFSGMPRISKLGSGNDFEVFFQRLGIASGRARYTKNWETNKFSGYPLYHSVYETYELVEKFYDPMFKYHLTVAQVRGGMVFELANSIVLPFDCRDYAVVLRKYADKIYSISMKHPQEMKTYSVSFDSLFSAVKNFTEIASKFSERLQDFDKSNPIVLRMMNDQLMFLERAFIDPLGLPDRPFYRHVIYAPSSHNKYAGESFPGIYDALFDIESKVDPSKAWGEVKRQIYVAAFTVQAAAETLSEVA

## NC(=O)CN1CCN(CC(N)=O)CCN(CC(N)=O)C(Cc2ccc(NC(=S)NC(Cc3ccc4ccccc4c3)C(=O)NCCCC[C@H](NC(=O)N[C@@H](CCC(=O)O)C(=O)O)C(=O)O)cc2)CN(CC(N)=O)CC1 (some centres unmarked) [CA008]
C4-2 tumour-bearing mice [1]
  tumour uptake in mice (planar scintigraphy): low tumour uptake
PSMA
  Ki: 28.8 ± 3.4 nM

## NC(=O)CN1CCN(CC(N)=O)CCN(CC(N)=O)C(Cc2ccc(NC(=S)NCC3CCC(C(=O)NC(Cc4ccc5ccccc5c4)C(=O)NCCCC[C@H](NC(=O)N[C@@H](CCC(=O)O)C(=O)O)C(=O)O)CC3)cc2)CN(CC(N)=O)CC1 (some centres unmarked) [CA009]
PSMA
  Ki: 15.3 ± 3.1 nM
C4-2 cells
  specific ligand-induced internalization: 27.4 ± 2.4 %IA/10^6 cells
C4-2 cells; [7]
  Specific cell surface: 106.5 ± 2.8 %IA/10^6 cells
  Specific lysate (specific internalization): 27.4 ± 2.4 %IA/10^6 cells

## O=C(O)CC[C@H](NC(=O)N[C@@H](CCCCNC(=O)C(Cc1ccc2ccccc2c1)NC(=O)C1CCC(CNC(=O)CN2CCN(CC(=O)O)CCN(CC(=O)O)CCN(CC(=O)O)CC2)CC1)C(=O)O)C(=O)O.[68Ga+3] (some centres unmarked) [^68Ga-PSMA-617]
[2]
  tumour uptake: 8.5 ± 4.1 %ID/g

## NC(=O)CN1CCN(CC(N)=O)CCN(CC(=O)NCC2CCC(C(=O)NC(Cc3ccc4ccccc4c3)C(=O)NCCCC[C@H](NC(=O)N[C@@H](CCC(=O)O)C(=O)O)C(=O)O)CC2)CCN(CC(N)=O)CC1.[203Pb+2] (some centres unmarked) [^203Pb-CA012]
C4-2 tumour-bearing mice [3]; 10 min
  Organ distribution, Blood: 5.37 ± 1.95 % ID/g
  Organ distribution, Brain: 0.14 ± 0.04 % ID/g
  Organ distribution, Heart: 1.78 ± 0.66 % ID/g
  Organ distribution, Kidneys: 26.97 ± 8.74 % ID/g
  Organ distribution, Liver: 1.25 ± 0.43 % ID/g
  Organ distribution, Lung: 4.31 ± 1.19 % ID/g
  Organ distribution, Muscle: 1.20 ± 0.43 % ID/g
  Organ distribution, Small intestine: 1.75 ± 0.48 % ID/g
  Organ distribution, Spleen: 1.97 ± 1.07 % ID/g
  Organ distribution, Tumor: 12.33 ± 1.92 % ID/g
C4-2 tumour-bearing mice [3]; 1 h
  Organ distribution, Blood: 0.26 ± 0.10 % ID/g
  Organ distribution, Brain: 0.02 ± 0.00 % ID/g
  Organ distribution, Heart: 0.10 ± 0.03 % ID/g
  Organ distribution, Kidneys: 5.08 ± 2.45 % ID/g
  Organ distribution, Liver: 0.20 ± 0.10 % ID/g
  Organ distribution, Lung: 0.33 ± 0.13 % ID/g
  Organ distribution, Muscle: 0.05 ± 0.03 % ID/g
  Organ distribution, Small intestine: 0.10 ± 0.04 % ID/g
  Organ distribution, Spleen: 0.16 ± 0.08 % ID/g
C4-2 tumour-bearing mice [3]; 1 h, listed as 203Pb-PSMA-CA012
  Organ distribution, Tumor: 8.4 ± 3.7 % ID/g and 8.37 ± 3.67 % ID/g
C4-2 tumour-bearing mice [3]; 4 h
  Organ distribution, Blood: 0.05 ± 0.01 % ID/g
  Organ distribution, Brain: 0.02 ± 0.01 % ID/g
  Organ distribution, Heart: 0.04 ± 0.02 % ID/g
  Organ distribution, Kidneys: 1.61 ± 0.28 % ID/g
  Organ distribution, Liver: 0.09 ± 0.01 % ID/g
  Organ distribution, Lung: 0.10 ±0.03 % ID/g
  Organ distribution, Muscle: 0.06 ± 0.03 % ID/g
  Organ distribution, Small intestine: 0.07 ± 0.05 % ID/g
  Organ distribution, Spleen: 0.07 ± 0.01 % ID/g
  Organ distribution, Tumor: 7.81 ±0.86 % ID/g
C4-2 tumour-bearing mice [3]; 24 h
  Organ distribution, Blood: 0.03 ± 0.00 % ID/g
  Organ distribution, Brain: 0.01 ± 0.00 % ID/g
  Organ distribution, Heart: 0.02 ± 0.00 % ID/g
  Organ distribution, Kidneys: 0.89 ± 0.14 % ID/g
  Organ distribution, Liver: 0.10 ± 0.02 % ID/g
  Organ distribution, Lung: 0.05 ± 0.01 % ID/g
  Organ distribution, Muscle: 0.02 ± 0.00 % ID/g
  Organ distribution, Small intestine: 0.02 ± 0.00 % ID/g
  Organ distribution, Spleen: 0.07 ± 0.02 % ID/g
  Organ distribution, Tumor: 3.30 ± 1.60 % ID/g
[4]
  Effective dose: 2.4 mSv/100 MBq
  Effective dose equivalent: 3.6 mSv/100 MBq
  Equivalent dose, Adrenals: 2.8 mSv/100 MBq
  Equivalent dose, Brain: 1.2 mSv/100 MBq
  Equivalent dose, Breasts: 1.1 mSv/100 MBq
  Equivalent dose, Gallbladder: 2.8 mSv/100 MBq
  Equivalent dose, Heart: 1.8 mSv/100 MBq
  Equivalent dose, Kidneys: 18.1 mSv/100 MBq
  Equivalent dose, Liver: 4.3 mSv/100 MBq
  Equivalent dose, Lower large intestine: 2.0 mSv/100 MBq
  Equivalent dose, Lungs: 1.6 mSv/100 MBq
  Equivalent dose, Muscle: 1.5 mSv/100 MBq
  Equivalent dose, Osteogenic cells: 3.7 mSv/100 MBq
  Equivalent dose, Pancreas: 2.8 mSv/100 MBq
  Equivalent dose, Red marrow: 1.8 mSv/100 MBq
  Equivalent dose, Skin: 1.0 mSv/100 MBq
  Equivalent dose, Small intestine: 2.1 mSv/100 MBq
  Equivalent dose, Spleen: 6.7 mSv/100 MBq
  Equivalent dose, Stomach: 2.0 mSv/100 MBq
  Equivalent dose, Testes: 1.4 mSv/100 MBq
  Equivalent dose, Thymus: 1.4 mSv/100 MBq
  Equivalent dose, Thyroid: 1.4 mSv/100 MBq
  Equivalent dose, Total body: 1.7 mSv/100 MBq
  Equivalent dose, Upper large intestine: 2.1 mSv/100 MBq
  Equivalent dose, Urinary bladder: 6.7 mSv/100 MBq
C4-2 cells
  specific ligand-induced internalization: ~16 %IA/10^6 cells
C4-2 cells; [7]
  Specific lysate (specific internalization): 15.6 ± 2.1 %IA/10^6 cells

## O=C(O)CC[C@H](NC(=O)N[C@@H](CCCCNC(=O)C(Cc1ccc2ccccc2c1)NC(=O)C1CCC(CNC(=O)CN2CCN(CC(=O)O)CCN(CC(=O)O)CCN(CC(=O)O)CC2)CC1)C(=O)O)C(=O)O.[213Bi+3] (some centres unmarked) [^213Bi-PSMA-617]
[5]
  Tissue equivalent dose, Kidneys: 8.1 SvRBE5
  Tissue equivalent dose, Red marrow: 0.5 SvRBE5
  Tissue equivalent dose, Salivary glands: 8.1 SvRBE5

## O=C([O-])CC[C@H](NC(=O)N[C@@H](CCCCNC(=O)[C@H](Cc1ccc2ccccc2c1)NC(=O)C1CCC(CNC(=O)CN2CCN(CC(=O)[O-])CCN(CC(=O)[O-])CCN(CC(=O)[O-])CC2)CC1)C(=O)[O-])C(=O)[O-].[225Ac].[H+].[H+].[H+] (some centres unmarked) [^225Ac-PSMA-617]
[6]
  Tissue equivalent dose, Kidneys: 4.2 SvRBE5
  Tissue equivalent dose, Red marrow: 0.3 SvRBE5
  Tissue equivalent dose, Salivary glands: 13.8 SvRBE5
